# According to ChEMBL document CHEMBL1150447, “Nitrogen and sulfur analogues of the secoCI alkylating agent: Synthesis and cytotoxicity” (Bioorg Med Chem Lett, 1996):
# How the values were obtained:
# Type in all cases: functional, cell-based
# [1] = system: EMT6; experiment: Compound was evaluated for cytotoxicity against murine mammary carcinoma EMT6 cell lines for 4 hr at pH-7.4; conditions: Mus musculus, EMT6, 4 h
# [2] = system: UV4; experiment: Compound was evaluated for cytotoxicity against CHO UV4 cell lines for 4 hr at pH-7.4; conditions: Cricetulus griseus, UV4, 4 h
# [3] = system: CHO-AA8; experiment: Compound was evaluated for cytotoxicity against CHO AA8 cell lines for 4 hr at pH-7.4; conditions: Cricetulus griseus, CHO-AA8, 4 h
SMILES,IC50 [1],IC50 [2],IC50 [3]
CNc1ccc2c(c1)N(C(=O)c1cc3cc(OC)c(OC)c(OC)c3[nH]1)CC2CCl (configuration not stated),0.11 µM,0.055 µM,0.22 µM
CS(=O)(=O)N1CC(CCl)c2ccc(S)cc21 (configuration not stated),> 200 µM,124 µM,> 200 µM
CSc1ccc2c(c1)N(S(C)(=O)=O)CC2CCl (configuration not stated),> 200 µM,> 200 µM,> 200 µM
CNc1ccc2c(c1)N(S(C)(=O)=O)CC2CCl (configuration not stated),13 µM,4.1 µM,50 µM
COc1cc2cc(C(=O)N3CC(CCl)c4ccc(N(C)C)cc43)[nH]c2c(OC)c1OC (configuration not stated),0.11 µM,0.088 µM,0.28 µM
COc1cc2cc(C(=O)N3CC(CCl)c4ccc(N)cc43)[nH]c2c(OC)c1OC (configuration not stated),,0.059 µM,0.32 µM
CS(=O)(=O)N1CC(CCl)c2ccc(O)cc21 (configuration not stated),7.7 µM,1.9 µM,20 µM
CS(=O)(=O)N1CC(CCl)c2ccc(SSc3ccc4c(c3)N(S(C)(=O)=O)CC4CCl)cc21 (configuration not stated),> 50 µM,> 50 µM,> 50 µM
CN(C)c1ccc2c(c1)N(S(C)(=O)=O)CC2CCl (configuration not stated),20 µM,15 µM,72 µM
CS(=O)(=O)N1CC(CCl)c2ccc(N)cc21 (configuration not stated),33 µM,13 µM,158 µM
COc1cc2cc(C(=O)N3CC(CCl)c4ccc(O)cc43)[nH]c2c(OC)c1OC (configuration not stated),0.0022 µM,0.001 µM,0.0065 µM
